Reference: US20230111853A1, “COMPOUNDS MODULATING PROTEIN RECRUITMENT AND/OR DEGRADATION” (Orionis Biosciences, Inc., priority 2019, published 2023)

Columns and labels:
[1] = biological target: T1, SALL4 recruitment to CRBN (Homo sapiens, UniProt Q96SW2); test: Recruitment Assay (MAPPIT-like): SALL4 recruitment to CRBN; assay type: cell-based; conditions: HEK293T cells; pSEL-SALL4+pMG1-CRBN; luciferase 24 hours after treatment; read-out: EC50_SALL4
T1 construct: Full size proteins were fused for each of the target proteins tested, except in the case of IKZF1 where isoform 7 was used; expressed in transfected cells; host or cells: HEK293T
Description: (§1) In this experimental set-up, cells were transfected with a construct encoding a CRBN-fusion protein and another one encoding a substrate-fusion protein. Test compound activity was assessed with increasing concentrations of test compounds (dose-response studies) to monitor the ability to promote CRBN-ligand-induced protein interaction.
(§2) Full size proteins were fused for each of the target proteins tested, except in the case of IKZF1 where isoform 7 was used. For the study, the following were used: IKZF1 recruitment: pSEL-CRBN+pMG1-IKZF1(isoform 7); ASS1 recruitment: pSEL-CRBN+pMG1-ASS1. SALL4 recruitment: pSEL-SALL4+pMG1-CRBN. […] Luciferase activity was measured 24 hours after test compound treatment using the Luciferase Assay System kit (PROMEGA, Madison, Wis.) with an Ensight plate reader (PERKIN ELMER LIFE SCIENCES, Waltham, Mass.). Data points depicted fold induction of the average luciferase activity of triplicate samples from EPO+test compound treated cells versus EPO only treated cells. Error bars represent standard deviations. Curves were fit using 4-parameter nonlinear regression in […] PRISM software.

[2] = test system: IKZF1, ASS1 and SALL4 recruitment to CRBN; test: Recruitment assessment: recruitment of any tested substrate from among IKZF1, ASS1 and SALL4; assay type: cell-based; conditions: any tested substrate at any tested compound concentration
Description: as §1, §2

T1 sequence (Q96SW2 whole entry, the tested form may be a part, canonical isoform): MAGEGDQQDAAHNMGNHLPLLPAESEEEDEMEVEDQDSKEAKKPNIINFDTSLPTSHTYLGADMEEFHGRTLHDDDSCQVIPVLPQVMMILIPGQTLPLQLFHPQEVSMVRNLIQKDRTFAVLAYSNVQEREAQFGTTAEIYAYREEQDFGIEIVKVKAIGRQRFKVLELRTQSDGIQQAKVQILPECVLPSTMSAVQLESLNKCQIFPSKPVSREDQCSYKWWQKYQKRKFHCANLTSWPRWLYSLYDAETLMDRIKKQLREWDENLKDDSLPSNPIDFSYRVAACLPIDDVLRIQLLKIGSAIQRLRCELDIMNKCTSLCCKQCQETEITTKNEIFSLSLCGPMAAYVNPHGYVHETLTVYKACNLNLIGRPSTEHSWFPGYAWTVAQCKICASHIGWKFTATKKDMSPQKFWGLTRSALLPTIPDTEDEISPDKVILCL
T1 sequence (Q9UJQ4 whole entry partner, the tested form may be a part, canonical isoform): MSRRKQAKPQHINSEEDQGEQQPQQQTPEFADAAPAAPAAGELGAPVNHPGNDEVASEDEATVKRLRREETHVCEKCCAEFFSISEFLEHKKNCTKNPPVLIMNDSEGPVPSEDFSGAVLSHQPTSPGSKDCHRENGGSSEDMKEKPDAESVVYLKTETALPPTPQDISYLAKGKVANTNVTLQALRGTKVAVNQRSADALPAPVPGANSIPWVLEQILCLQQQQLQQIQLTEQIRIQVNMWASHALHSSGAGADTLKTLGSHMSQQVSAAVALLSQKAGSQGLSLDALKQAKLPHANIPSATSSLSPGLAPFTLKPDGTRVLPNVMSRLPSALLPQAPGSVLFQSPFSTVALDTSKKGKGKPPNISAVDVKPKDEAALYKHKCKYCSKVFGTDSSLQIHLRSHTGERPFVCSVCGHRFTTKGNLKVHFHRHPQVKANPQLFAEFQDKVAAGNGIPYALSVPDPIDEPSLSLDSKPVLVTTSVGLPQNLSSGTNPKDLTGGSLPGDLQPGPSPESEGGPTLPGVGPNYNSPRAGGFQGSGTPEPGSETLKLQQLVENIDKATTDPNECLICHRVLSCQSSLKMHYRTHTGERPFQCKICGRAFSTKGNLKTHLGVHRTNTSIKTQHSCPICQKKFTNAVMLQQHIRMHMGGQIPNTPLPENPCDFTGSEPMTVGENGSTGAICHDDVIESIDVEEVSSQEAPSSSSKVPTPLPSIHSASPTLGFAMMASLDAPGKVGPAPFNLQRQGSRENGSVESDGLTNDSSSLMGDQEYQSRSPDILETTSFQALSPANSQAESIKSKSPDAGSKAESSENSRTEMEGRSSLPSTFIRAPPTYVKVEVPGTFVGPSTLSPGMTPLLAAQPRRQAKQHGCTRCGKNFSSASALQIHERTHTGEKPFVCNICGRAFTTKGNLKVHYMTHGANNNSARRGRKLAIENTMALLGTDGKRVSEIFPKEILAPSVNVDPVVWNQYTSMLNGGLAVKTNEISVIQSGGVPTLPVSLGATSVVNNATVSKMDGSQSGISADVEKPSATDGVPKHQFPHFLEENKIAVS
T1 sequence (Q16531 whole entry partner, the tested form may be a part, canonical isoform): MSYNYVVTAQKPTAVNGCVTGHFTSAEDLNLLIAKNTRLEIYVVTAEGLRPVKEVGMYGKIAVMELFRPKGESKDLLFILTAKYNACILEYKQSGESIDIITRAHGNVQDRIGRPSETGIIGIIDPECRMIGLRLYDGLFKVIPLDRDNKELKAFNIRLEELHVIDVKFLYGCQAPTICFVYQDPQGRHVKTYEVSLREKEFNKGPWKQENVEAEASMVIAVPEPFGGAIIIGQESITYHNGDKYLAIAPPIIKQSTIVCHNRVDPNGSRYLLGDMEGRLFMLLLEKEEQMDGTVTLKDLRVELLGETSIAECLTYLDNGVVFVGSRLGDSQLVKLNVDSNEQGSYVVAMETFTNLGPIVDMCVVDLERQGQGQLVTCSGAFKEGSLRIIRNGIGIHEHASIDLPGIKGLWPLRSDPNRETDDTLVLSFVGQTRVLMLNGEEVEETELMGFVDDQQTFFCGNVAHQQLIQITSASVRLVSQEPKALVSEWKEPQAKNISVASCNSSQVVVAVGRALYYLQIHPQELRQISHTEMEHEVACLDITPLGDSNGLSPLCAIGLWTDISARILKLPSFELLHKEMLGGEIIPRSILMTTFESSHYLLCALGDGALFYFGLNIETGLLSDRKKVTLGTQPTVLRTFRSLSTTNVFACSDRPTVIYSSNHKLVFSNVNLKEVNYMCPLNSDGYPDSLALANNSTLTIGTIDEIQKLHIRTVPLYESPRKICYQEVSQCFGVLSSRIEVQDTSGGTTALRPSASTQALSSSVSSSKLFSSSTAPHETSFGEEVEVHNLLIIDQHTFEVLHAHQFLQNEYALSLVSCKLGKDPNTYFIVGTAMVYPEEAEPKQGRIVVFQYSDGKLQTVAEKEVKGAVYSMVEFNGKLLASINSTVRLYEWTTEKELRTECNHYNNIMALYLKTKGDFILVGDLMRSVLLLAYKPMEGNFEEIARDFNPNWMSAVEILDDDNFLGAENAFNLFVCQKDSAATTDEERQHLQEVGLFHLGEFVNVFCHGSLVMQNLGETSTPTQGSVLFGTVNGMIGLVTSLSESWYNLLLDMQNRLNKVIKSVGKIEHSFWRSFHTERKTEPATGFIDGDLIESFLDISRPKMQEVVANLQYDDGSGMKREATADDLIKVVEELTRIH

Row | SMILES | EC50 [1] | Recruitment Assessment [2]
1 | CC(C)OC1c2ccccc2C(=O)N1C1CCC(=O)NC1=O (stereo not shown) [3-(1-isopropoxy-3-oxo-isoindolin-2-yl)piperidine-2,6-dione] | 2700 nM | TRUE
2 | Cc1nc2ccc(C#N)c(N)c2c(=O)n1C1CCC(=O)NC1=O (stereo not shown) [C10001, 5-amino-3-(2,6-dioxo-3-piperidyl)-2-methyl-4-oxo-quinazoline-6-carbonitrile] | 1250 nM | TRUE
3 | O=C1CCC(N2C(=O)c3ccccc3C2NCc2ccccc2)C(=O)N1 (stereo not shown) [C10239, 3-[1-(benzylamino)-3-oxo-isoindolin-2-yl]piperidine-2,6-dione] | 1160 nM | TRUE
4 | CN(C)C1c2ccccc2C(=O)N1C1CCC(=O)NC1=O (stereo not shown) [C10981, 3-[1-(dimethylamino)-3-oxo-isoindolin-2-yl]piperidine-2,6-dione] | 1460 nM | TRUE
5 | O=C1CCC(N2Cc3ccc(NCC(=O)NC4CCOCC4)cc3C2=O)C(=O)N1 (stereo not shown) [C12693, 2-[[2-(2,6-dioxo-3-piperidyl)-3-oxo-isoindolin-5-yl]amino]-N-tetrahydropyran-4-yl-acetamide] | 2620 nM | TRUE
6 | O=C1CCC(N2Cc3ccc(NCC(=O)NC4CCOC4)cc3C2=O)C(=O)N1 (stereo not shown) [C12694, 2-[[2-(2,6-dioxo-3-piperidyl)-3-oxo-isoindolin-5-yl]amino]-N-tetrahydrofuran-3-yl-acetamide] | 3430 nM | TRUE
7 | Cc1ccc2nnn(C3CCC(=O)NC3=O)c(=O)c2c1 (stereo not shown) [C16463, 3-(6-methyl-4-oxo-1,2,3-benzotriazin-3-yl)piperidine-2,6-dione] | 772 nM | TRUE
8 | Cc1ccc2c(=O)n(C3CCC(=O)NC3=O)nnc2c1 (stereo not shown) [C17800, 3-(7-methyl-4-oxo-1,2,3-benzotriaan-3-yl)piperidirie-2,6-dione] | 904 nM | TRUE
9 | Cc1cc(Nc2ccc3c(c2)C(=O)N(C2CCC(=O)NC2=O)C3)ncn1 (stereo not shown) [C80384, 3-[6-[(6-methylpyrimidin-4-yl)amino]-1-oxo-isoindolin-2-yl] piperidine-2,6-dione] | – | FALSE
10 | O=C1CCC(N2Cc3ccc(Nc4[nH]cnc5nccc4-5)cc3C2=O)C(=O)N1 (stereo not shown) [C80385, 3-[1-oxo-6-(3H-pyrrolo[2,3-d]pyrimidin-4-ylamino)isoindolin-2-yl] piperidine-2,6-dione] | – | FALSE
11 | O=C1CCC(N2Cc3ccc(Nc4cnc5ccccc5n4)cc3C2=O)C(=O)N1 (stereo not shown) [C80386, 3-[1-oxo-6-(quinoxalin-2-ylamino)isoindolin-2-yl]piperidine-2,6-dione] | – | FALSE
12 | Cn1ccnc(Nc2ccc3c(c2)C(=O)N(C2CCC(=O)NC2=O)C3)c1=O (stereo not shown) [C80387, 3-[6-[(4-methyl-3-oxo-pyrazin-2-yl)amino]-1-oxo-isoindolin-2-yl] piperidine-2,6-dione] | – | FALSE
13 | N#Cc1ccc(Nc2ccc3c(c2)C(=O)N(C2CCC(=O)NC2=O)C3)nn1 (stereo not shown) [C80389, 6-[[2-(2,6-dioxo-3-piperidyl)-3-oxo-isoindolin-5-yl]amino]pyridazine-3-carbonitrile] | – | FALSE
14 | Cc1cc2[nH]cnc(Nc3ccc4c(c3)C(=O)N(C3CCC(=O)NC3=O)C4)c-2n1 (stereo not shown) [C80390, 3-[6-[(6-methylpyrrolo[3,2-d]pyrimidin-4-yl)ammo]-1-oxo-isoindolin-2-yl]piperidine-2,6-dione] | – | TRUE
15 | O=C1CCC(N2Cc3ccc(NC(=O)c4ccc5ccccc5n4)cc3C2=O)C(=O)N1 (stereo not shown) [C80392, N-[2-(2,6-dioxo-3-piperidyl)-3-oxo-isoindolin-5-yl]quinoline-2-carboxamide] | – | FALSE
16 | O=C1CCC(N2Cc3ccc(NC(=O)c4ccc5cnccc5n4)cc3C2=O)C(=O)N1 (stereo not shown) [C80393, N-[2-(2,6-dioxo-3-piperidyl)-3-oxo-isoindolin-5-yl]-1,6-naphthyridine-2-carboxamide] | – | FALSE
17 | O=C1CCC(N2Cc3ccc(NC(=O)C4=C5C=CN=C5N=CC4)cc3C2=O)C(=O)N1 (stereo not shown) [C80395, N-[2-(2,6-dioxo-3-piperidyl)-3-oxo-isoindolin-5-yl]-5H-pyrrolo [2,3-b]pyridine-4-carboxamide] | – | TRUE
18 | NC(=O)CNc1ccc2c(c1)C(=O)N(C1CCC(=O)NC1=O)C2 (stereo not shown) [C84961, 2-[[2-(2,6-dioxo-3-piperidyl)-3-oxo-isoindolin-5-yl]amino]acetamide] | – | FALSE
19 | O=C1CCC(N2Cc3ccc(NCC(=O)NC4CC4)cc3C2=O)C(=O)N1 (stereo not shown) [C84963, N-cyclopropyl-2-[[2-(2,6-dioxo-3-piperidyl)-3-oxo-isoindolin-5-yl]amino]acetamide] | – | FALSE

Row | SMILES | EC50 [1] | Recruitment Assessment [2]
20 | CN(C)C(=O)CNc1ccc2c(c1)C(=O)N(C1CCC(=O)NC1=O)C2 (stereo not shown) [C84964, 2-[[2-(2,6-dioxo-3-piperidyl)-3-oxo-isoindolin-5-yl]amino]-N,N-dimethyl-acetamide] | – | FALSE
21 | O=C(CNc1ccc2c(c1)C(=O)N(C1CCC(=O)NC1=O)C2)NCc1ccccc1 (stereo not shown) [C84966, N-benzyl-2-[[2-(2,6-dioxo-3-piperidyl)-3-oxo-isoindolin-5-yl]amino]acetaimde] | – | FALSE
22 | CC(=O)NCC(=O)Nc1ccc2c(c1)C(=O)N(C1CCC(=O)NC1=O)C2 (stereo not shown) [C84967, 2-acetamido-N-[2-(2,6-dioxo-3-piperidyl)-3-oxo-isoindolin-5-yl]acetamide] | – | TRUE
23 | O=C1CCC(N2Cc3ccc(N4CCNC4=O)cc3C2=O)C(=O)N1 (stereo not shown) [C84971, 3-[1-oxo-6-(2-oxoimidazolidin-1-yl)isoindolin-2-yl]piperidine-2,6-dione] | – | FALSE
24 | O=C1CCC(N2Cc3ccc(NCC(=O)N4CCc5ccccc5C4)cc3C2=O)C(=O)N1 (stereo not shown) [C95329, 3-[6-[[2-(3,4-dihydro-1H-isoquinolin-2-yl)-2-oxo-ethyl]amino]-1-oxo-isoindolin-2-yl]piperidine-2,6-] | – | FALSE
25 | O=C1CCC(N2Cc3ccc(NCC(=O)N4Cc5ccccc5C4)cc3C2=O)C(=O)N1 (stereo not shown) [C95330, 3-[6-[(2-isoindolin-2-yl-2-oxo-ethyl)amino]-1-oxo-isoindolin-2-yl] piperidine-2,6-dione] | – | FALSE
26 | CN(Cc1cnn(C)c1)C(=O)CNc1ccc2c(c1)C(=O)N(C1CCC(=O)NC1=O)C2 (stereo not shown) [C95333] | – | FALSE
27 | O=C1CCC(N2Cc3ccc(NCC(=O)N4CC5COCC5C4)cc3C2=O)C(=O)N1 (stereo not shown) [C95334, 3-[6-[[2-(1,3,3a,4,6,6a-hexahydrofuro[3,4-c]pyrrol-5-yl)-2-oxo-ethyl]amino]-1-oxo-isoindolin-2-yl]piperidine-2.6-dione] | – | FALSE
28 | CC1Cc2ccccc2N1C(=O)CNc1ccc2c(c1)C(=O)N(C1CCC(=O)NC1=O)C2 (stereo not shown) [C95336, 3-[6-[[2-(2-methylindolin-1-yl)-2-oxo-ethyl]amino]-1-oxo-isoindolin-2-yl]piperidine-2,6-dione] | – | FALSE
29 | CN(CC1CC1)C(=O)CNc1ccc2c(c1)C(=O)N(C1CCC(=O)NC1=O)C2 (stereo not shown) [C95338, N-(cyclopropylmethyl)-2-[[2-(2,6-dioxo-3-piperidyl)-3-oxo-isoindolin-5-yl]amino]-N-methyl-acetamide] | – | FALSE
30 | C=CCC1c2ccccc2C(=O)N1C1CCC(=O)NC1=O (stereo not shown) [C96413, 3-(1-allyl-3-oxo-isoindolin-2-yl)piperidine-2,6-dione] | – | FALSE
31 | CN(C)c1ccc2c(c1)C(=O)N(C1CCC(=O)NC1=O)C2 (stereo not shown) [C96622, 3-[6-(dimethylamino)-1-oxo-isoindolin-2-yl]piperidine-2,6-dione] | – | FALSE
32 | CC(C)(C)OC(=O)CC1c2ccccc2C(=O)N1C1CCC(=O)NC1=O (stereo not shown) [C98053, t-butyl 2-[2-(2,6-dioxo-3-piperidyl)-3-oxo-isoindolin-1-yl]acetate] | – | FALSE
33 | O=C1CC=CC(C(=O)NC2CCC(=O)NC2=O)=N1 (stereo not shown) [C98696, N-(2,6-dioxo-3-piperidyl)-2-oxo-3H-pyridine-6-carboxamide] | – | FALSE
34 | O=C1CCC(N2Cc3cccc([N+](=O)[O-])c3C2=O)C(=O)N1 (stereo not shown) [C99884, 3-(7-nitro-1-oxo-isoindolin-2-yl)piperidine-2,6-dione] | – | FALSE
35 | Cc1nc2cccc(N)c2c(=O)n1C1CCC(=O)NC1=O (stereo not shown) [CC-122, 3-(5-amino-2-methyl-4-oxo-quinazolin-3-yl)piperidine-2,6-dione, reference compound] | – | TRUE
36 | O=C1CC[C@H](N2Cc3c(OCc4ccc(CN5CCOCC5)cc4)cccc3C2=O)C(=O)N1 [CC-220, (3S)-3-[4-[[4-(morpholinomethyl)phenyl]methoxy]-1-oxo-isoindolin-2-yl]piperidine-2,6-dione, reference compound] | – | TRUE
37 | Nc1cccc2c1C(=O)N(C1CCC(=O)NC1=O)C2=O (stereo not shown) [POM, 4-amino-2-(2,6-dioxo-3-piperidyl)isoindoline-1,3-dione, reference compound] | – | TRUE
38 | O=C1CCC(N2C(=O)c3ccccc3C2=O)C(=O)N1 (stereo not shown) [THL, Thalidomide, reference compound] | – | TRUE
